The values that follow come from publication PMC5829162, “Rational Design, Synthesis and Biological Evaluation of Pyrimidine-4,6-diamine derivatives as Type-II inhibitors of FLT3 Selective Against c-KIT” (Scientific Reports, 2018).

Values joined by “and” are separate entries in the source; they are usually repeats but may differ in a detail not shown here. Equal entries are not always repeated.

Data set [1] has as its target T1, FLT3 kinase (Homo sapiens, UniProt P36888).
T1 construct: purchased Invitrogen
T1 sequence (P36888 27-993): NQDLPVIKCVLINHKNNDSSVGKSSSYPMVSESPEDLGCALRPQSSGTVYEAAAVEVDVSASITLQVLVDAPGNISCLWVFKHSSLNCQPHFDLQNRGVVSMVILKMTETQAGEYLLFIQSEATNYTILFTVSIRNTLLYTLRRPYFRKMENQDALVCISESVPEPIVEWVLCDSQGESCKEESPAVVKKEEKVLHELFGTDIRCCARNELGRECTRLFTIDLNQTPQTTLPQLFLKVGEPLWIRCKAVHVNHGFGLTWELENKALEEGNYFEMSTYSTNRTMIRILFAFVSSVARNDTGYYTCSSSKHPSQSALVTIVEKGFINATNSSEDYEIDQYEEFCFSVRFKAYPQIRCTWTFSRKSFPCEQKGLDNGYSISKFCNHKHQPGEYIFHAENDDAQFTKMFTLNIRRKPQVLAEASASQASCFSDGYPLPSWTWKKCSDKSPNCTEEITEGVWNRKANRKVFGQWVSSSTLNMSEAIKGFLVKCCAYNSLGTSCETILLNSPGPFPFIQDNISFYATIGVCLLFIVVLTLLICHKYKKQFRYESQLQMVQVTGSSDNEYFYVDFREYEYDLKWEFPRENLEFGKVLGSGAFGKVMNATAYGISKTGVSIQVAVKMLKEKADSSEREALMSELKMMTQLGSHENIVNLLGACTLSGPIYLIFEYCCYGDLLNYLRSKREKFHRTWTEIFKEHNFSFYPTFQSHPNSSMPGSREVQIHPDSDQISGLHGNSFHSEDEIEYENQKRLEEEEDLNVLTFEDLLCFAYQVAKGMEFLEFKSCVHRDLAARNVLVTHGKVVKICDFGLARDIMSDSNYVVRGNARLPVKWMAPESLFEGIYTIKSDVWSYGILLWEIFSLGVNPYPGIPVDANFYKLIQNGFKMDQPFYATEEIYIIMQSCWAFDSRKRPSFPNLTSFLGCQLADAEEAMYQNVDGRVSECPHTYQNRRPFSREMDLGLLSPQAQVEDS
The data set is described as follows: Biochemical enzyme inhibition assay (microfluidics, Caliper EZ Reader II), FLT3. The note with it: for IC50: in vitro kinase assay, 60 min pre-incubation, ATP 190 µM, three independent experiments, read-out: FLT3 IC50 (nM) ± SD; for LE: ligand efficiency for FLT3 inhibition. How it is done:
Kinase activity was measured in a microfluidics assay that monitors the separation of a phosphorylated product from substrate[31],[32]. […] After, 1 μL was transferred into a 384-well polypropylene assay plate (Greiner, Frickenhausen, Germany). The FLT3 enzyme (Invitrogen™, Grand Island, USA) was diluted in kinase buffer to a concentration of 2 nM and 5 µL of the enzyme mixture was transferred to the assay plate. The inhibitors/FLT3 enzyme were incubated for 60 minutes with minor shaking. […] For positive control, no inhibitor was added. For negative control, no enzyme was added. For running control, quizartinib was utilized. The plate was run until 10–20% conversion based on the positive control wells. The following separation conditions were utilized: upstream voltage −500V; downstream voltage, −1900V; chip pressure −0.8. Percent inhibition was measured for each well comparing starting peptide to phosphorylated product peaks relative to the baseline. Dose response curves, spanning the IC50 dose, were generated in GraphPad Prisim 6 and fit to an exponential one-phase decay line and IC50 values were obtained from the half-life value of the curve. IC50 values were generated in duplicate and error was calculated from the standard deviation between values.
S10. Biochemical Inhibition Assay:1,2 Kinase activity was measured in a microfluidics assay that monitors the separation of a phosphorylated product from substrate. The assay was run using a 12-sipper chip on a Caliper EZ Reader II (PerkinElmer®, Walthman, USA) with separation […]
Walthman, USA]). In 96-well polypropylene plates (Greiner, Frickenhausen, Germany) […]
After, 1 μL was transferred into a 384-well polypropylene assay plate (Greiner, Frickenhausen, Germany). The FLT3 enzyme (Invitrogen™, Grand Island, USA) was diluted in kinase buffer to a concentration of 2 nM and 5 µL of the enzyme mixture was transferred to the assay plate. The inhibitors/FLT3 enzyme were incubated for 60 minutes with minor shaking. A substrate mix was prepared containing ATP (Ambresco®, Solon, USA) and […]
USA) dissolved in kinase buffer, and 5 µL of the substrate mix was added to the assay plate.
For positive control, no inhibitor was added. For negative control, no enzyme was added. For running control, quizartinib was utilized. The plate was run until 10-20% conversion based on the positive control wells. The following separation conditions were utilized: upstream voltage -500V; downstream voltage, -1900V; chip pressure - 0.8. Percent inhibition was measured for each well comparing starting peptide to phosphorylated product peaks relative to the baseline. Dose response curves, spanning the IC50 dose, were generated in GraphPad Prisim 6 and fit to an exponential one-phase decay line and IC50 values were obtained from the half-life value of the curve. IC50 values were generated in duplicate and error was calculated from the standard deviation between values. […]

As for `CC(C)(C)c1cc(NC(=O)Cc2ccc(Nc3cc(Nc4cccc(C(F)(F)F)c4)ncn3)cc2)no1` [13m, 2-(4-(6-(3-(Trifluoromethyl)phenylamino)pyrimidin-4-ylamino)phenyl)-N-(5-tert-butylisoxazol-3-yl)acetamide], the melting point was 254 to 256 °C. Besides, in data set [1], the IC50 was found to be 1180 ± 527 nM and the LE was determined as 0.22.

As to `CC(C)(C)c1cc(NC(=O)Cc2ccc(Nc3cc(N4CCOCC4)ncn3)cc2)no1` [13p, 2-(4-(6-Morpholinopyrimidin-4-ylamino)phenyl)-N-(5-tert-butylisoxazol-3-yl)acetamide], the melting point was 218 to 220 °C. Moreover, in data set [1], the IC50 worked out at 395 ± 78 nM and the LE is recorded as 0.28.

`CC(C)(C)c1cc(NC(=O)Cc2ccc(Nc3cc(NCCCN4CCCC4)ncn3)cc2)no1` [13n, 2-(4-(6-(3-(Pyrrolidin-1-yl)propylamino)pyrimidin-4-ylamino)phenyl)-N-(5-tert-butylisoxazol-3-yl)acetamide] came in with a melting point of 154 to 156 °C. For the same molecule, in data set [1], the IC50 was determined as 1030 ± 121 nM and the LE is given as 0.23.

Regarding `CC(C)(C)c1cc(NC(=O)Nc2ccc(Nc3cc(Nc4ccc(S(C)(=O)=O)cc4)ncn3)cc2)no1` [24c, 1-(4-(6-(4-(Methylsulfonyl)phenylamino)pyrimidin-4-ylamino)phenyl)-3-(5-tert-butylisoxazol-3-yl)urea], the melting point lay in the range of 245 to 247 °C. Moreover, in data set [1], the concentration for half-maximal inhibition (IC50) came to 29 ± 1.9 nM and the LE turned out to be 0.28.

As to `CC(C)(C)c1cc(NC(=O)Cc2ccc(Nc3cc(Nc4ccc(S(C)(=O)=O)cc4)ncn3)cc2)n(-c2ccc(F)cc2)n1` [13g, 2-(4-(6-(4-(Methylsulfonyl)phenylamino)pyrimidin-4-ylamino)phenyl)-N-(3-tert-butyl-1-(4-fluorophenyl)-1H-pyrazol-5-yl)acetamide], the melting point is 168 to 170 °C. Moreover, in data set [1], the IC50 is 3230 ± 556 nM and the LE was 0.17.

On to `CS(=O)(=O)c1ccc(Nc2cc(Oc3ccc(CC(=O)Nc4cccc(F)c4)cc3)ncn2)cc1` [13aa, 2-(4-(6-(4-(Methylsulfonyl)phenylamino)pyrimidin-4-yloxy)phenyl)-N-(3-fluorophenyl)acetamide], for which the melting point was in the range of 228 to 230 °C. Besides, in data set [1], the IC50 was 7878 ± 29 nM and the LE was 0.20.

As for `CNc1cc(Nc2ccc(NC(=O)Nc3cc(C(C)(C)C)nn3C)cc2)ncn1` [24b, 1-(4-(6-(Methylamino)pyrimidin-4-ylamino)phenyl)-3-(3-tert-butyl-1-methyl-1H-pyrazol-5-yl)urea], the melting point was in the range of 242 to 244 °C. For the same molecule, in data set [1], the IC50 was 38.2 ± 1.5 nM and the LE came out at 0.37.

With `CNc1cc(Nc2ccc(CC(=O)Nc3ccc(OC(F)(F)F)cc3)cc2)ncn1` [13z, 2-(4-(6-(Methylamino)pyrimidin-4-ylamino)phenyl)-N-(4-(trifluoromethoxy)phenyl) acetamide], the melting point is 220 to 222 °C. Besides, in data set [1], the IC50 came to 7370 ± 333 nM and the LE was 0.23.

Take `CS(=O)(=O)c1ccc(Nc2cc(Nc3ccc(CC(=O)NC4CC4)cc3)ncn2)cc1` [13ae, 2-(4-(6-(4-(Methylsulfonyl)phenylamino)pyrimidin-4-ylamino)phenyl)-N-cyclopropylacetamide]: the melting point is 110 to 112 °C. Also, in data set [1], the IC50 came out at 5550 ± 169 nM and the LE stood at 0.23.

`CN1CCN(c2cc(Nc3ccc(CC(=O)Nc4cc(C(C)(C)C)nn4-c4ccc(Br)cc4)cc3)ncn2)CC1` [13j, 2-(4-(6-(4-Methylpiperazin-1-yl)pyrimidin-4-ylamino)phenyl)-N-(3-tert-butyl-1-(4-bromophenyl)-1H-pyrazol-5-yl)acetamide] returned a melting point of 110 to 112 °C. In data set [1], the IC50 turned out to be 6020 ± 122 nM and the LE was 0.18.

`O=C(Cc1ccc(Nc2cc(N3CCOCC3)ncn2)cc1)NC1CC1` [13ai, 2-(4-(6-Morpholinopyrimidin-4-ylamino)phenyl)-N-cyclopropylacetamide]: the melting point was 110 to 112 °C. Also, in data set [1], the IC50 was determined as 15100 ± 168 nM and the LE turned out to be 0.25.

In turn, `CC(C)(C)c1cc(NC(=O)Cc2ccc(Oc3cc(Nc4cccc(C(F)(F)F)c4)ncn3)cc2)no1` [13l, 2-(4-(6-(3-(Trifluoromethyl)phenylamino)pyrimidin-4-yloxy)phenyl)-N-(5-tert-butylisoxazol-3-yl)acetamide] gave a melting point of 120 to 122 °C. In data set [1], the IC50 was 567 nM and 568 nM; the LE is on record as 0.23.

With `CN(C)c1cc(Oc2ccc(CC(=O)Nc3cc(C(C)(C)C)on3)cc2)ncn1` [13q, 2-(4-(6-(Dimethylamino)pyrimidin-4-yloxy)phenyl)-N-(5-tert-butylisoxazol-3-yl)acetamide], the melting point was 170 to 172 °C. In addition, in data set [1], the IC50 was found to be 8760 ± 127 nM and the LE came to 0.24.

In turn, `CCCCNc1cc(Oc2ccc(CC(=O)Nc3nc(C(C)(C)C)cs3)cc2)ncn1` [13aj, 2-(4-(6-(Butylamino)pyrimidin-4-yloxy)phenyl)-N-(4-tert-butylthiazol-2-yl)acetamide] gave a melting point of 102 to 104 °C. In data set [1], the half-maximal inhibitory concentration (IC50) was 7580 ± 132 nM and the LE is 0.23.
